Laboratory results as given in patent publication EP4667464A1 (Cyrus Therapeutics Inc., priority 2023, dated 2024).

Assays:
SOS1 = target: T1, SOS1 (Homo sapiens, UniProt Q07889); test: SOS-catalyzed nucleotide exchange assay (HTRF, SOS1-mediated GTP loading of KRAS G12D); type: biochemical; conditions: GST-KRAS G12D, HIS-SOS1cat, compound 128 pM to 10 µM; read-out: SOS-catalyzed nucleotide exchange assay
T1 construct: HIS-SOS1cat (160 nM; Cytoskeleton, US); His (N); purchased Cytoskeleton
T1 sequence (Q07889 564-1049 limits assumed): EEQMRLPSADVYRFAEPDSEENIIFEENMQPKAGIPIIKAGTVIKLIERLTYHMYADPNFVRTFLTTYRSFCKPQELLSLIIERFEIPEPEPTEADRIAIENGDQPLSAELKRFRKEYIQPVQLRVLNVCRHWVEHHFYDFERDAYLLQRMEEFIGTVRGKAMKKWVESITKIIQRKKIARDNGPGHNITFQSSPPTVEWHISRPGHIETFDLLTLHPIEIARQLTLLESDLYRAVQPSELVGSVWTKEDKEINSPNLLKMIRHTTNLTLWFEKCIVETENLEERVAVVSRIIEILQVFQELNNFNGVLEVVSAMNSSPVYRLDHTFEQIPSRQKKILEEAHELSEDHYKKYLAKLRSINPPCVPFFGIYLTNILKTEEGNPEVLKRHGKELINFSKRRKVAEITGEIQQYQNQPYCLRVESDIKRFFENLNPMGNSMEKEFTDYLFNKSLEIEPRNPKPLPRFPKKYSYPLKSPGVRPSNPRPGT

KRAS G12C::SOS1 = target: T2, KRAS G12C::SOS1 (Homo sapiens, UniProt Q07889); test: KRAS G12C::SOS1 protein-protein interaction (PPI) inhibition assay (HTRF); type: binding; conditions: 8 concentrations from 3 µM, three replicates; read-out: KRAS G12C::SOS1 PPI
T2 construct: purchased CISBIO 64KRASG12PEH
T2 sequence (Q07889 1-1333): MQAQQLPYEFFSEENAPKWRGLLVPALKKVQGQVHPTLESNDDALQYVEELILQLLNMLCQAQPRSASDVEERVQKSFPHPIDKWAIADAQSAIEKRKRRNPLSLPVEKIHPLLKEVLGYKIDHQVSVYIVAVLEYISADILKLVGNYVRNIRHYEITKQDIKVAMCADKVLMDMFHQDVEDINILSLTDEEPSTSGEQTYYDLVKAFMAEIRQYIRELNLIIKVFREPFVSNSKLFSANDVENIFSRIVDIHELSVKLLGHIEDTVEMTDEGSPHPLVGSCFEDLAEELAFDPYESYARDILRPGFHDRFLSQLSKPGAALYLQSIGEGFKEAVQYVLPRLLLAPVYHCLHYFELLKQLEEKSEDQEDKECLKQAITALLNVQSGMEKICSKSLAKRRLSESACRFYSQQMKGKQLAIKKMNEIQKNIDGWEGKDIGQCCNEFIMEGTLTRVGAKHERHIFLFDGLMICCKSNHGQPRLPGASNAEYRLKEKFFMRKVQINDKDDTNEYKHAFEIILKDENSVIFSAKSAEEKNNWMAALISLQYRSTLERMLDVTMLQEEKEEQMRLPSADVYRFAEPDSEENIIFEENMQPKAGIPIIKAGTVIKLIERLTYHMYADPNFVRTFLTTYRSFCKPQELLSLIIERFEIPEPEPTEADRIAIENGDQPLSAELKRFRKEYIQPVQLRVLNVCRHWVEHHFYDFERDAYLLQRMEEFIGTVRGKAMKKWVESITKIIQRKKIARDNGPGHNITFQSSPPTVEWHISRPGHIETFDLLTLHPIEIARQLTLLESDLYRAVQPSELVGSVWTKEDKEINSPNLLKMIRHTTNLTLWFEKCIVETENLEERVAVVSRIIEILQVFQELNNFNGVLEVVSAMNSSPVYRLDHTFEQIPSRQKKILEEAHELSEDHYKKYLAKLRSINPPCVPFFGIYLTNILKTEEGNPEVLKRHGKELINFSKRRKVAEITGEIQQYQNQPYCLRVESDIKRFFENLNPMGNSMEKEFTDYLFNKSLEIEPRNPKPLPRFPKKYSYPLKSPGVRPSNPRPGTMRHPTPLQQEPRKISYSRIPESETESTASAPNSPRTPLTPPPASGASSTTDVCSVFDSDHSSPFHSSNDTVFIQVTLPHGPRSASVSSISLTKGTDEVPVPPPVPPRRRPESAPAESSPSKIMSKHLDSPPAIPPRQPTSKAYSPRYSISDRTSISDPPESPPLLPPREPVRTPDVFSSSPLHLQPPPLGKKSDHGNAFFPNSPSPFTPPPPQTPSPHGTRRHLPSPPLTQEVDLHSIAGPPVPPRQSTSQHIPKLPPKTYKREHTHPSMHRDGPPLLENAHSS
Summary of the method: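 Compounds, at eight 3-fold dilutions from 3 µM, were mixed with GTP-loaded Tag1-KRAS G12C, Tag2-SOS1 and a terbium-cryptate donor plus XL665 acceptor antibody pair. After 2 h at room temperature, time-resolved FRET reported the KRAS–SOS1 interaction.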

Row | Compound | IC50 (SOS1) [nM] | IC50 (KRAS G12C::SOS1) [nM]
1 | [2H][C@](C)(NC(=O)c1ccc(=O)n(-c2cncc(-c3cnnn3C)c2)n1)c1cccc(C(F)(F)F)c1F [Example 1-34, N-[(1R)-1-deuterio-1-[2-fluoro-3-(trifluoromethyl)phenyl]ethyl]-1-[5-(3-methyltriazol-4-yl)-3-pyridyl]-6-oxo-pyridazine-3-carboxamide] | 50 to 150 | < 50
2 | C[C@@H](NC(=O)c1ccc(=O)n(-c2cncc(-c3cnnn3C3CC3)c2)n1)c1cccc(C(F)F)c1F [Example 1-51, N-[(1R)-1-[3-(difluoromethyl)-2-fluorophenyl]ethyl]-1-[5-(1-cyclopropyl-1H-1,2,3-triazol-5-yl)-3-pyridyl]-6-oxo-pyridazine-3-carboxamide] | < 50 | 50 to 150
3 | Cc1c([C@@H](C)NC(=O)c2ccc(=O)n(-c3cncc(-c4cnnn4C)c3)n2)cc(N)cc1C(F)(F)F [Example 2-2, N-[(1R)-1-[5-amino-2-methyl-3-(trifluoromethyl)phenyl]ethyl]-1-[5-(3-methyltriazol-4-yl)-3-pyridyl]-6-oxo-pyridazine-3-carboxamide] | < 50 | < 50
4 | C[C@@H](NC(=O)c1ccc(=O)n(-c2cncc(-c3cnnn3C3CN(CCO)C3)c2)n1)c1cccc(C(F)(F)F)c1F [Example 20-1, (R)-N-(1-(2-fluoro-3-(trifluoromethyl)phenyl)ethyl)-1-(5-(1-(1-(2-hydroxyethyl)azetidin-3-yl)-1H-1,2,3-triazol-5-yl)pyridin-3-yl)-6-oxo-1,6-dihydropyridazine-3-carboxamide] | < 50 | 50 to 150
5 | Cc1cc(C(=O)N[C@H](C)c2cccc(C(F)(F)F)c2F)cn(-c2cncc(-c3cnnn3C)c2)c1=O [Example 1-21, (R)-N-(1-(2-fluoro-3-(trifluoromethyl)phenyl)ethyl)-3-methyl-5'-(1-methyl-1H-1,2,3-triazol-5-yl)-2-oxo-2H-[1,3'-bipyridine]-5-carboxamide] | < 50 | < 50
6 | COCC(F)(F)c1cccc([C@@H](C)NC(=O)c2ccc(=O)n(-c3cncc(-c4cnnn4C)c3)n2)c1F [Example 1-10, (R)-N-(1-(3-(1,1-difluoro-2-methoxyethyl)-2-fluorophenyl)ethyl)-1-(5-(1-methyl-1H-1,2,3-triazol-5-yl)pyridin-3-yl)-6-oxo-1,6-dihydropyridazine-3-carboxamide] | < 50 | 50 to 150
7 | C[C@@H](NC(=O)c1ccc(=O)n(-c2cncc(-c3cnnn3C3CNC3)c2)n1)c1cccc(C(F)(F)CO)c1F [Example 20-2, (R)-1-(5-(1-(azetidin-3-yl)-1H-1,2,3-triazol-5-yl)pyridin-3-yl)-N-(1-(3-(1,1-difluoro-2-hydroxyethyl)-2-fluorophenyl)ethyl)-6-oxo-1,6-dihydropyridazine-3-carboxamide] | < 50 | < 50
8 | [2H]C([2H])([2H])[C@@H](NC(=O)c1ccc(=O)n(-c2cncc(-c3cnnn3C3CC3)c2)n1)c1cccc(C(F)(F)CO)c1F [Example 1-60, 1-[5-(1-cyclopropyl-1H-1,2,3-triazol-5-yl)-3-pyridyl]-6-oxo-N-[(1R)-2,2,2-trideuterio-1-[3-(1,1-difluoro-2-hydroxy-ethyl)-2-fluoro-phenyl]ethyl]pyridazine-3-carboxamide] | < 50 | < 50
9 | CCc1cc(C(=O)N[C@H](C)c2cccc(C(F)(F)F)c2F)nn(-c2cncc(-c3cnnn3C)c2)c1=O [Example 1-66, N-{(R)-1-[2-fluoro-3-(trifluoromethyl)phenyl]ethyl}-5-ethyl-1-[5-(1-methyl-1H-1,2,3-triazol-5-yl)-3-pyridyl]-6-oxo-1,6-dihydropyridazine-3-carboxamide] | 50 to 150 | < 50
10 | C[C@@H](NC(=O)c1cc(C#N)c(=O)n(-c2cncc(-c3cnnn3C)c2)n1)c1cccc(C(F)F)c1F [Example 3-1, 5-cyano-N-[(1R)-1-[3-(difluoromethyl)-2-fluorophenyl]ethyl]-1-[5-(1-methyl-1H-1,2,3-triazol-5-yl)pyridin-3-yl]-6-oxo-1,6-dihydropyridazine-3-carboxamide] | 50 to 150 | > 150
11 | [2H]C([2H])([2H])n1nncc1-c1cnc(F)c(-n2nc(C(=O)N[C@H](C)c3cccc(C(F)(F)F)c3F)cc(C#N)c2=O)c1 [Example 3-5, 5-cyano-N-[(1R)-1-(2-fluoro-3-(trifluoromethyl)phenyl)ethyl]-1-[2-fluoro-5-(1-(methyl-trideuterio)-1H-1,2,3-triazol-5-yl)pyridin-3-yl]-6-oxo-1,6-dihydropyridazine-3-carboxamide] | 50 to 150 | 50 to 150
12 | C[C@@H](NC(=O)c1cc(F)c(=O)n(-c2cncc(-c3cnnn3C)c2)c1)c1cccc(C(F)(F)F)c1F [Example 1-30, (R)-3-fluoro-N-(1-(2-fluoro-3-(trifluoromethyl)phenyl)ethyl)-5'-(1-methyl-1H-1,2,3-triazol-5-yl)-2-oxo-2H-[1,3'-bipyridine]-5-carboxamide] | > 150 | > 150
13 | CC(=O)N1CC(n2nncc2-c2cncc(-n3nc(C(=O)N[C@H](C)c4cccc(C(F)(F)F)c4F)ccc3=O)c2)C1 [Example 20-10, (R)-1-(5-(1-(1-acetylazetidin-3-yl)-1H-1,2,3-triazol-5-yl)pyridin-3-yl)-N-(1-(2-fluoro-3-(trifluoromethyl)phenyl)ethyl)-6-oxo-1,6-dihydropyridazine-3-carboxamide] | < 50 | < 50
14 | C[C@H](O)c1cc(C(=O)N[C@H](C)c2cccc(C(F)(F)F)c2F)nn(-c2cncc(-c3cnnn3C)c2)c1=O (single isomer, unassigned) [Example 10] | 50 to 150 | 50 to 150
15 | [2H]C([2H])([2H])[C@@H](NC(=O)c1ccc(=O)n(-c2cncc(-c3cnnn3C)c2)n1)c1cccc(C(F)(F)F)c1F [Example 1-35, N-{(R)-1-[2-fluoro-3-(trifluoromethyl)phenyl]-ethyl-(2,2,2-trideuterio)}-1-[5-(1-methyl-1H-1,2,3-triazol-5-yl)-3-pyridyl]-6-oxo-pyridazine-3-carboxamide] | 50 to 150 | 50 to 150
16 | CCc1cc(C(=O)N[C@H](C)c2cccc(C(F)(F)CO)c2F)nn(-c2cncc(-c3cnnn3C(C)C)c2)c1=O [Example 1-41, N-{(R)-1-[3-(1,1-difluoro-2-hydroxyethyl)-2-fluorophenyl]ethyl}-5-ethyl-1-[5-(1-isopropyl-1H-1,2,3-triazol-5-yl)-3-pyridyl]-6-oxo-1,6-dihydropyridazine-3-carboxamide] | < 50 | < 50
17 | C[C@@H](NC(=O)c1ccc(=O)n(-c2cncc(-c3cnnn3CCO)c2)n1)c1cccc(C(F)(F)F)c1F [Example 11, N-{(R)-1-[2-fluoro-3-(trifluoromethyl)phenyl]ethyl}-1-{5-[1-(2-hydroxyethyl)-1H-1,2,3-triazol-5-yl]-3-pyridyl}-6-oxo-1,6-dihydropyridazine-3-carboxamide] | < 50 | 50 to 150
